Values joined by “and” are separate entries in the source; they are usually repeats but may differ in a detail not shown here. Identical values can stand only once.
Biological target: T1, ARF6 (Homo sapiens, UniProt P62330)
T1 construct: expressed in transfected cells; host or cells: HEK293SL
Assay: GST-GGA3-PBD pull-down of AT1R-mediated HA-ARF6 activation
Type: cell-based
Settings: for ARF6-GTP/ARF6, GST-GGA3-PBD pull down: Comp 21 50 μM, individual experiments
Procedure: HEK293 cells were transfected with a BRET sensor that monitors the interaction between β-arrestins and the β-appendage of AP-2 (Fig. 2a)[26],[33]. […] The small GTPase ARF6, which binds β-arrestins and facilitates AP-2 and clathrin recruitment at the PM, is also necessary for CCPs initiation and receptor internalization. Therefore, ARF6 activity was assessed using the protein-3 binding domain (PBD) of the golgi-associated, gamma adaptin ear-containing, ARF-binding protein 3 (GGA3) fused to GST (GST-GGA3-PBD) in a pull-down assay, which allows the detection of GTP-bound ARF6 in cells[34] (Fig. 2b). […] This inhibition was selective for ARF6 since 21 had no effect on AT1R-dependent ARF1 activation (Supplementary Fig. 2a). We also devised a BRET assay to quantitatively assess 21’s action on ARF activity. The ARF BRET assay was created using the GGA3-PBD fused to RlucII (GGA3-PBD-RlucII) and the rGFP anchored at the PM (rGFP-CAAX) (Supplementary Fig. 3a). […] 21 blocked ARF’s activation by 40–60% following AT1R stimulation (Fig. 2c).
Activation of ARF1, ARF6, Ras, and Rho were assessed by using GST pull-down assays. HEK293SL cells were transiently transfected with 3 µg AT1R-flag only (Ras and Rho) or along with 500 ng HA-ARF6 (ARF6) or HA-ARF1 (ARF1). Forty-eight hours later, the HEK293 or MDA-MB-231 cells were serum-starved for 4 h with DMEM containing 20 mM HEPES then pretreated with DMSO or Rasarfin (50 µM) for 30 min. Cells were then stimulated with 1 µM AngII or 100 ng/ml EGF for 0 and 2 min. Cells were then washed once with ice-cold PBS and lysed for 30 min at 4 °C in 300 µl of lysis buffer (pH 7.5, 50 mM Tris-HCl, 140 mM NaCl, 5 mM MgCl2, 10% glycerol (v/v), 1% Nonidet P-40 (v/v), 1 mM dithiothreitol) supplemented with protease inhibitors (1 mM phenylmethyl-sulfonyl fluoride (PMSF), 10 µg/ml leupeptin, 5 µg/ml aprotinin, 1 µg/ml pepstatin A) and phosphatase inhibitors (20 mM NaF, 0.025 mM pervanadate). […] ImageLab 5.2 software was used to quantify the digital blots as fold of the amount of pulled down protein over total protein. […]

T1 sequence (P62330 whole entry, species assumed): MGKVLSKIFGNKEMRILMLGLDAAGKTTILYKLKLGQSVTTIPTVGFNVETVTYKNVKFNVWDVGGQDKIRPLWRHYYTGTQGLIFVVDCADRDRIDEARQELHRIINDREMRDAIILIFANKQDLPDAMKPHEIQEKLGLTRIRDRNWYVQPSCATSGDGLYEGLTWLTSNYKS

## CC(C)C(=O)N1CCN(c2ccc(NC(=O)c3cc4ccccc4o3)cc2Cl)CC1 [Compound 21]
50 μM, read-out: inhibition of ARF6-GTP (AngII-stimulated cells, pull-down)
  inhibition at 50 µM: > 70%
AngII
  ARF6-GTP/ARF6, GST-GGA3-PBD pull down: 0.1415 and 0.1921 and 0.09307 and 0.2014
Control (no AngII)
  ARF6-GTP/ARF6, GST-GGA3-PBD pull down: 0.0894 and 0.1773 and 0.03131 and 0.1335

— paper PMC8333425, “Discovery of a dual Ras and ARF6 inhibitor from a GPCR endocytosis screen” (Nature Communications, 2021)
